Data: ChEMBL document CHEMBL3991601, “The target landscape of clinical kinase drugs” (Science, 2017)
Calls of active or inactive are those of the source.

Legend:
[1] = molecular target: Serine/threonine-protein kinase ATR (Homo sapiens, UniProt Q13535)
[2] = molecular target: Membrane-associated progesterone receptor component 1 (Homo sapiens, UniProt O00264)
[3] = molecular target: T1, Isoleucine--tRNA ligase, mitochondrial (Homo sapiens, UniProt Q9NSE4)
T1 sequence (Q9NSE4 whole entry): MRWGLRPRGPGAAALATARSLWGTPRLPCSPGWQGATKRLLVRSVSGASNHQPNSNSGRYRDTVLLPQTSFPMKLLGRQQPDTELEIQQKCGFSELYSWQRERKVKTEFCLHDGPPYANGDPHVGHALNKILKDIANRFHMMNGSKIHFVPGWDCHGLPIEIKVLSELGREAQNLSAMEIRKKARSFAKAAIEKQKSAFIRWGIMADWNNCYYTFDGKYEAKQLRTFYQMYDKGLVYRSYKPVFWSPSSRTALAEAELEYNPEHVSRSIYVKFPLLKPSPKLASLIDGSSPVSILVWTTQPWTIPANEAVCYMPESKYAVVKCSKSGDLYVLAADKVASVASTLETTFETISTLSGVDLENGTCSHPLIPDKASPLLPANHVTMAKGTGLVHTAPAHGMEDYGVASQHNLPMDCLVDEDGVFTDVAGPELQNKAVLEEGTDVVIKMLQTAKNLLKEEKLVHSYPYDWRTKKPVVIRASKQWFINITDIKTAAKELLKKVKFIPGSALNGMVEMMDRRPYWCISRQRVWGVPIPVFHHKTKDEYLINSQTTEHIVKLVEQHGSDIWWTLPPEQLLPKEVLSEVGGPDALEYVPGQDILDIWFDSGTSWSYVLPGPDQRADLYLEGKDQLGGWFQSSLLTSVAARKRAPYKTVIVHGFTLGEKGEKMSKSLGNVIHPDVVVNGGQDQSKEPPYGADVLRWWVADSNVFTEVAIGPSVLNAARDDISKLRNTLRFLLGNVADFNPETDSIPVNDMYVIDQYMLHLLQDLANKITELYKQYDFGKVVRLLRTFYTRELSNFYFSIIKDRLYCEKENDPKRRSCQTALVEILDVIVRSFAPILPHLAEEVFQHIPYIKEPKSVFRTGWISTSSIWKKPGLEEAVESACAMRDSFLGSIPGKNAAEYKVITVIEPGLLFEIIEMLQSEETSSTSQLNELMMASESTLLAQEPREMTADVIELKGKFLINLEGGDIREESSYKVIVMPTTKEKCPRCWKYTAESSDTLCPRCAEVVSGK

[4] = molecular target: Serine/threonine-protein kinase 24 (Homo sapiens, UniProt Q9Y6E0)
[5] = molecular target: Cell division cycle 7-related protein kinase (Homo sapiens, UniProt O00311)
[6] = molecular target: Proto-oncogene tyrosine-protein kinase receptor Ret (Homo sapiens, UniProt P07949)
[7] = molecular target: Rho-associated protein kinase 1 (Homo sapiens, UniProt Q13464)
[8] = molecular target: T2, ATP-dependent RNA helicase DHX30 (Homo sapiens, UniProt Q7L2E3)
T2 sequence (Q7L2E3 whole entry): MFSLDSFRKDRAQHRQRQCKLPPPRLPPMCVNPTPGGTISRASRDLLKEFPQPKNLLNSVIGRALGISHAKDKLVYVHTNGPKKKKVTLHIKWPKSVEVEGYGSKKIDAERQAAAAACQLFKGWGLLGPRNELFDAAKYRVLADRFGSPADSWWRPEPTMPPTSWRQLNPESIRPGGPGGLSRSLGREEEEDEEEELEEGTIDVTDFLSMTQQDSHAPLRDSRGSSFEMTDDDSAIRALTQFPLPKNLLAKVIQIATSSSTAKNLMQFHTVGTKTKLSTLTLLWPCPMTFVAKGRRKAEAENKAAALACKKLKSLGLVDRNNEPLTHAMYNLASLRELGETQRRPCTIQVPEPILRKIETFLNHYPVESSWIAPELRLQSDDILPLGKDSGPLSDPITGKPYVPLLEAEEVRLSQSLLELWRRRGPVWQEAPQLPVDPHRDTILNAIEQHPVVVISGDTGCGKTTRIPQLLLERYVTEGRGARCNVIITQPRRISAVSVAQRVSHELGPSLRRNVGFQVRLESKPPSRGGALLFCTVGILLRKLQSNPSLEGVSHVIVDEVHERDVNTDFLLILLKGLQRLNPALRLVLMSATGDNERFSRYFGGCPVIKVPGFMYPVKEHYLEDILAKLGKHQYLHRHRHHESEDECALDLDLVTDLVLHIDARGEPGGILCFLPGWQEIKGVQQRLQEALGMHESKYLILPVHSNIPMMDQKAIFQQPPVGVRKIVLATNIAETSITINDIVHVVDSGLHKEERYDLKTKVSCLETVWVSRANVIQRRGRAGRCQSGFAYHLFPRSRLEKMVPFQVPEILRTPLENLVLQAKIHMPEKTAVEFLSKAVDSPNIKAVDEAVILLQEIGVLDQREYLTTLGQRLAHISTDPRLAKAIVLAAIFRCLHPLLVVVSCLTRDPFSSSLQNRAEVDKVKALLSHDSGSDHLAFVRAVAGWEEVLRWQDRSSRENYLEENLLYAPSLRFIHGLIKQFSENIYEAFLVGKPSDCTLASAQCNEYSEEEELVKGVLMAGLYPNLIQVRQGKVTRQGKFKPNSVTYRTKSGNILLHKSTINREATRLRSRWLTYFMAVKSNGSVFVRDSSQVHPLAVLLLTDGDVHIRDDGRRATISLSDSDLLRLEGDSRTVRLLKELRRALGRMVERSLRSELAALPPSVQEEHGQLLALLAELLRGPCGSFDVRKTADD

[9] = molecular target: Dual specificity protein kinase CLK4 (Homo sapiens, UniProt Q9HAZ1)
UMP-CMP kinase = molecular target: T3, UMP-CMP kinase (Homo sapiens, UniProt P30085)
T3 sequence (P30085 whole entry): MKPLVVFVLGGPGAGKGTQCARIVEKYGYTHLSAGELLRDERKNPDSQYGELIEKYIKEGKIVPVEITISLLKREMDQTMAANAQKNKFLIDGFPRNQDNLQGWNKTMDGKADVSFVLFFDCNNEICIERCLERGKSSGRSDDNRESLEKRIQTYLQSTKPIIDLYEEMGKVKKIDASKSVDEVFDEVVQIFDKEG

[10] = molecular target: High affinity nerve growth factor receptor (Homo sapiens, UniProt P04629)
[11] = molecular target: Serine/threonine-protein kinase Nek7 (Homo sapiens, UniProt Q8TDX7)
Note: in the data inactive means no Kd found up to 30 µM.

Serine/threonine-protein kinase ATR, sequence (Q13535 whole entry): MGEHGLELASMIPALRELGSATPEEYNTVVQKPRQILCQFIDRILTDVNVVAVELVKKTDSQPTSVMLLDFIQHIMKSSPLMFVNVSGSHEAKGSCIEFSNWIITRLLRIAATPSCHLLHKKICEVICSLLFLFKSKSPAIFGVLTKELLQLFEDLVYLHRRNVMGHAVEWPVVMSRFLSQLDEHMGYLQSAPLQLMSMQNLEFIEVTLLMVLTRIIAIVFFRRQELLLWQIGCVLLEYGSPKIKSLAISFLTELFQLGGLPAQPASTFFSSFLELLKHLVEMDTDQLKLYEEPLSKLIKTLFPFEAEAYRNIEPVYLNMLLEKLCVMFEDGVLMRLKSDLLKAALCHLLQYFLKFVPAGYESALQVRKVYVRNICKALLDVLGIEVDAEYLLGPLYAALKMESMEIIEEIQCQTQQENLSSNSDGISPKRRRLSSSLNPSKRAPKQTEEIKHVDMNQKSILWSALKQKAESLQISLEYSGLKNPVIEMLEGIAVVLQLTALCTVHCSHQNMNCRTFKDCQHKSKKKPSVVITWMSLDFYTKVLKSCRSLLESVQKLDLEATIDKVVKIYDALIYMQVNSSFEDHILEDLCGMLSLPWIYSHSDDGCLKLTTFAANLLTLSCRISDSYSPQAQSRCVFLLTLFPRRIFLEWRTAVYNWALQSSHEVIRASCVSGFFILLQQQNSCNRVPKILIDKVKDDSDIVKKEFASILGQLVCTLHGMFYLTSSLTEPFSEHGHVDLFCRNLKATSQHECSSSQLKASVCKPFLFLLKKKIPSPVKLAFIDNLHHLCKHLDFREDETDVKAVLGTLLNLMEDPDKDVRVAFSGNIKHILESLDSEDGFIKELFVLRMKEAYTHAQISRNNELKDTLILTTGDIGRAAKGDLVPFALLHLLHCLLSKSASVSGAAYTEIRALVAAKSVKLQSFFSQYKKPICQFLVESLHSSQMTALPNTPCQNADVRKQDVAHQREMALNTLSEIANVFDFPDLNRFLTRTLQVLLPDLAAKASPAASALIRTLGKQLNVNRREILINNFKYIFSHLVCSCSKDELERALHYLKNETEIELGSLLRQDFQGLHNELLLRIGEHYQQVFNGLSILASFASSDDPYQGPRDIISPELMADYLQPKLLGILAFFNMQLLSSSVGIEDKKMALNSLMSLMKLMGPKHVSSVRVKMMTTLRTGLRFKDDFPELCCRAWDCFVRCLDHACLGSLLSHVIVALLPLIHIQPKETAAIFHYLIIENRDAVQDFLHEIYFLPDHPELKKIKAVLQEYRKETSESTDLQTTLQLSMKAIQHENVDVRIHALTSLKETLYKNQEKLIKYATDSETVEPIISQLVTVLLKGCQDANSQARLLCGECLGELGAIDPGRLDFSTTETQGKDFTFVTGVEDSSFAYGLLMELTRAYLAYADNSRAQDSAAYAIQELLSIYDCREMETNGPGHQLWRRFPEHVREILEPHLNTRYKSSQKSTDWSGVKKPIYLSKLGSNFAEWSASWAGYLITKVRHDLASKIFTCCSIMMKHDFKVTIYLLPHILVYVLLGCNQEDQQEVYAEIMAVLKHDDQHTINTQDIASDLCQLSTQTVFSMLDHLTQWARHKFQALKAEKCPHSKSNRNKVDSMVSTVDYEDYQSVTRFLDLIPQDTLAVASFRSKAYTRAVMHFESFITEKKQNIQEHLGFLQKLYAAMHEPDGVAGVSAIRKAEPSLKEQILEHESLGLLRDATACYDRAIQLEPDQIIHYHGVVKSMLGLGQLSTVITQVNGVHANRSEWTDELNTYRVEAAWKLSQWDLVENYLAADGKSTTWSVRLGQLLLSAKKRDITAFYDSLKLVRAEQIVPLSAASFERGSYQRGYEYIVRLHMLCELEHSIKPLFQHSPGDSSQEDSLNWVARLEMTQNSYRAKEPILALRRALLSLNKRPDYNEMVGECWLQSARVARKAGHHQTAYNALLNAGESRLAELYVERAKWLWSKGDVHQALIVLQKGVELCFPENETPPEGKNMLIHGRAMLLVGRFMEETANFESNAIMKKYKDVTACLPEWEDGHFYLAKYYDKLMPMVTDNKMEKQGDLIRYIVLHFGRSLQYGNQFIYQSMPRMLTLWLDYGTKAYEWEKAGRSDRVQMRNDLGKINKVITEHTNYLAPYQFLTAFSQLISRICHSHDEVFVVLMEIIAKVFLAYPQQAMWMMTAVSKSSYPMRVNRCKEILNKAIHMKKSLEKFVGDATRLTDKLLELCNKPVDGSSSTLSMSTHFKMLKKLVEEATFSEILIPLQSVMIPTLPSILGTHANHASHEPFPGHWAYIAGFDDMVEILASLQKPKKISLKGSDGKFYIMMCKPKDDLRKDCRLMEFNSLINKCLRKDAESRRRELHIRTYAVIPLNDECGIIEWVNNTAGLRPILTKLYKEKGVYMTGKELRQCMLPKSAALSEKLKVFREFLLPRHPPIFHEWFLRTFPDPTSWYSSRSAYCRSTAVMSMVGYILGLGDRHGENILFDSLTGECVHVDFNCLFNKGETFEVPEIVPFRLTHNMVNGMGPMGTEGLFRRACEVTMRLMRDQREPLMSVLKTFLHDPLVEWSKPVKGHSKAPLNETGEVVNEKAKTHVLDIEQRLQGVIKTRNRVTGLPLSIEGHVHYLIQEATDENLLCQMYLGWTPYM
Serine/threonine-protein kinase 24, sequence (Q9Y6E0 whole entry): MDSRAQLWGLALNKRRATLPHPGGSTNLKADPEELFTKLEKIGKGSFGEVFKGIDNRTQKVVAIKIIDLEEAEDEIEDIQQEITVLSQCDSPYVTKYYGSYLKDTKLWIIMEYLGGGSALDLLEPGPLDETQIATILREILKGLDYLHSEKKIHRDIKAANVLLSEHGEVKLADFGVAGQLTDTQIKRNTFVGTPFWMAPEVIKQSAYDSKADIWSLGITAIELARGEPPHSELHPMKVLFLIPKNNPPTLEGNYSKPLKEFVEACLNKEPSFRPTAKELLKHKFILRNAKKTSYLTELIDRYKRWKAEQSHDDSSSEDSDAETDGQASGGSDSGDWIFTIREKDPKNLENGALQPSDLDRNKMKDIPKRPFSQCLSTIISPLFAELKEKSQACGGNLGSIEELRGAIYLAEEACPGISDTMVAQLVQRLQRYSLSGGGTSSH
Cell division cycle 7-related protein kinase, sequence (O00311 whole entry): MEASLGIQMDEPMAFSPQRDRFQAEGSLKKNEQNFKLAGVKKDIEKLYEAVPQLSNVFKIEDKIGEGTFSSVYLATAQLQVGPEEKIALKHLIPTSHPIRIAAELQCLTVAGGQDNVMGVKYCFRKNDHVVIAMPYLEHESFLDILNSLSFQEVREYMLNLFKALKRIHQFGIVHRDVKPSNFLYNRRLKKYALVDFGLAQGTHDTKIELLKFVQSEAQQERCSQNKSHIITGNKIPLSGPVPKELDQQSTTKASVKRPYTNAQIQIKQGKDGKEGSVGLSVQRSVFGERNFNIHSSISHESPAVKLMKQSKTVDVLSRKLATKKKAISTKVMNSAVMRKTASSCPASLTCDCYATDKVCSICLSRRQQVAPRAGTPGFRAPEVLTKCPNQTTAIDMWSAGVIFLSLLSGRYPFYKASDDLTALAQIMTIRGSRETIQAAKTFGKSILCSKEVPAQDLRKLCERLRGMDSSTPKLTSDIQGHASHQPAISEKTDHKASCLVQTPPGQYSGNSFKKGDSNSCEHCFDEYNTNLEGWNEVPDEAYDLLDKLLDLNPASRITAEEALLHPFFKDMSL
Rho-associated protein kinase 1, sequence (Q13464 whole entry): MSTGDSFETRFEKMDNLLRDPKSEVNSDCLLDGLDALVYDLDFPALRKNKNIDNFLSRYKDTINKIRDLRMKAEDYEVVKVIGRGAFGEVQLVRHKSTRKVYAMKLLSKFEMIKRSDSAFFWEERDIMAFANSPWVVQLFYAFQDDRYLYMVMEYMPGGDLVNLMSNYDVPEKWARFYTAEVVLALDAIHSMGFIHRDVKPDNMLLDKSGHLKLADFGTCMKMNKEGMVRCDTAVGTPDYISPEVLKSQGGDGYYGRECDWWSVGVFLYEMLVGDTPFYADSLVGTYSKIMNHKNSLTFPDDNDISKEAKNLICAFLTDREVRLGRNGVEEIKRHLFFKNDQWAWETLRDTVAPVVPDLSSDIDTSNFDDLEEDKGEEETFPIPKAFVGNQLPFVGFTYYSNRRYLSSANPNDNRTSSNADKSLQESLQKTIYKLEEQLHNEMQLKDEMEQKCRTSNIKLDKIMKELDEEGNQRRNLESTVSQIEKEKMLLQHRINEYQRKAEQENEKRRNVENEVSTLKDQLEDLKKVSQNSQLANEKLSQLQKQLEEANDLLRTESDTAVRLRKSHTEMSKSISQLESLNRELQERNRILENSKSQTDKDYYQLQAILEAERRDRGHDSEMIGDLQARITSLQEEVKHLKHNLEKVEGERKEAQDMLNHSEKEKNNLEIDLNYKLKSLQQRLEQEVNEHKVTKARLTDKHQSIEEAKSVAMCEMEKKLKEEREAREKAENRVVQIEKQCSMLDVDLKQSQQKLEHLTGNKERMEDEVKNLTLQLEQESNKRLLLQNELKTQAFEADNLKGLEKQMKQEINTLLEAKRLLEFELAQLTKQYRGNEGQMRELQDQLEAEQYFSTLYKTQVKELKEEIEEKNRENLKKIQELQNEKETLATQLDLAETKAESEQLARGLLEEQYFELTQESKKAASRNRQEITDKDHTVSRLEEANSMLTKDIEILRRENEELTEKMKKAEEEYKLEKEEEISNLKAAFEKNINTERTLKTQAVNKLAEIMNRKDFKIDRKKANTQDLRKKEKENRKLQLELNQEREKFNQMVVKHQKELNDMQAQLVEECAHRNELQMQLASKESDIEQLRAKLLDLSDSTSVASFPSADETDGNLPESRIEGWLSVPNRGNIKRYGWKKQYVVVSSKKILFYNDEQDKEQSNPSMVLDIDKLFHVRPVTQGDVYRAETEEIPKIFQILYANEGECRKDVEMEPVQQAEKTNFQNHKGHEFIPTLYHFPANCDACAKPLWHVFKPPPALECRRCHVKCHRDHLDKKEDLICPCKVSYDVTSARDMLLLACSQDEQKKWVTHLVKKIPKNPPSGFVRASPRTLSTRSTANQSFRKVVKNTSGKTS

Structure (SMILES) | Kd [1] | Kd [2] | Kd [3] | Kd [4] | Kd [5] | Kd [6] | Kd [7] | Kd [8] | Kd [9] | Kd (UMP-CMP kinase) | Kd [10] | Kd [11]
CCN(CCCOc1ccc2c(Nc3cc(CC(=O)Nc4cccc(F)c4)n[nH]3)ncnc2c1)CCOP(=O)(O)O [BARASERTIB] | > 30 µM (inactive) | > 30 µM (inactive) | > 30 µM (inactive) | > 30 µM (inactive) |  |  |  |  |  |  |  | 
CCN1CCN(Cc2ccc(Nc3ncc(F)c(-c4cc(F)c5nc(C)n(C(C)C)c5c4)n3)nc2)CC1 [ABEMACICLIB] | > 30 µM (inactive) |  | > 30 µM (inactive) | > 30 µM (inactive) | > 30 µM (inactive) | > 30 µM (inactive) | > 30 µM (inactive) |  | 0.013 µM |  | > 30 µM (inactive) | 
C[C@]1(O)C[C@@H](c2nc(-c3ccc4ccc(-c5ccccc5)nc4c3)c3c(N)nccn32)C1 [LINSITINIB] |  | > 30 µM (inactive) |  |  | > 30 µM (inactive) |  |  | > 30 µM (inactive) |  |  |  | 
CN(c1ncccc1CNc1nc(Nc2ccc3c(c2)CC(=O)N3)ncc1C(F)(F)F)S(C)(=O)=O [PF-00562271] |  | > 30 µM (inactive) | > 30 µM (inactive) |  |  |  |  |  | > 30 µM (inactive) | > 30 µM (inactive) |  | 
COc1ccc2c(OCc3nnc4ccc(-c5ccccc5)nn34)ccnc2c1 [AMG-208] | > 30 µM (inactive) | > 30 µM (inactive) | > 30 µM (inactive) | > 30 µM (inactive) |  | > 30 µM (inactive) | > 30 µM (inactive) |  | > 30 µM (inactive) | > 30 µM (inactive) |  | 
NC[C@@](O)(c1ccc(Cl)cc1)c1ccc(-c2cn[nH]c2)cc1 [AT-13148] |  | > 30 µM (inactive) | > 30 µM (inactive) |  |  | > 30 µM (inactive) | 0.027 µM (active) |  |  | > 30 µM (inactive) |  | 
C=CCN(/C=C1/C(=O)O[C@H](COC)[C@@]2(C)C1=C(O)C(=O)C1=C2[C@H](OC(C)=O)C[C@]2(C)C(=O)CC[C@@H]12)CC=C [SONOLISIB] |  |  |  | > 30 µM (inactive) |  | > 30 µM (inactive) | > 30 µM (inactive) |  |  |  |  | > 30 µM (inactive)
CCc1nc(C(N)=O)c(Nc2ccc(N3CCC(N4CCN(C)CC4)CC3)c(OC)c2)nc1NC1CCOCC1 [GILTERITINIB] |  | > 30 µM (inactive) |  | 0.23 µM |  | 0.05 µM (active) | > 30 µM (inactive) | > 30 µM (inactive) | > 30 µM (inactive) |  | > 30 µM (inactive) | 
CN(C)C/C=C/C(=O)Nc1cc2c(Nc3ccc(F)c(Cl)c3)ncnc2cc1O[C@H]1CCOC1 [AFATINIB] |  | > 30 µM (inactive) |  |  | > 30 µM (inactive) |  |  | > 30 µM (inactive) |  |  |  | 

The next lines start with the values.

Kd [1] | Kd [2] | Kd [3] | Kd [4] | Kd [5] | Kd [6] | Kd [7] | Kd [8] | Kd [9] | Kd (UMP-CMP kinase) | Kd [10] | Kd [11] | Structure (SMILES)
 | > 30 µM (inactive) | 0.011 µM | > 30 µM (inactive) | > 30 µM (inactive) | > 30 µM (inactive) | > 30 µM (inactive) | > 30 µM (inactive) | > 30 µM (inactive) | > 30 µM (inactive) | > 30 µM (inactive) |  | O=C(NC[C@H](O)CO)c1ccncc1Nc1ccc(I)cc1F [PIMASERTIB]
> 30 µM (inactive) |  | > 30 µM (inactive) |  | > 30 µM (inactive) |  |  | > 30 µM (inactive) |  | > 30 µM (inactive) |  |  | COc1cc2c(Oc3ccc4[nH]c(C)cc4c3F)ncnc2cc1OCCCN1CCCC1 [CEDIRANIB]
 |  |  |  | > 30 µM (inactive) |  |  |  |  |  |  |  | COc1cc2c(N3CCN(C(=O)Nc4ccc(OC(C)C)cc4)CC3)ncnc2cc1OCCCN1CCCCC1 [TANDUTINIB]
 | > 30 µM (inactive) |  | > 30 µM (inactive) |  | > 30 µM (inactive) | 13.5 µM (active) | > 30 µM (inactive) |  |  | > 30 µM (inactive) |  | CC[C@@](C)(Nc1ccnc(-c2c[nH]c3ncccc23)n1)C(=O)NCC(F)(F)F [DECERNOTINIB]
 | > 30 µM (inactive) |  |  | > 30 µM (inactive) |  |  | > 30 µM (inactive) |  | > 30 µM (inactive) |  |  | CC1(C)CNc2cc(NC(=O)c3cccnc3NCc3ccncc3)ccc21 [MOTESANIB]
 | > 30 µM (inactive) | > 30 µM (inactive) |  | > 30 µM (inactive) |  |  |  |  | > 30 µM (inactive) |  |  | Cn1cnc2c(F)c(Nc3ccc(Br)cc3Cl)c(C(=O)NOCCO)cc21 [SELUMETINIB]
 | > 30 µM (inactive) |  | > 30 µM (inactive) | > 30 µM (inactive) | > 30 µM (inactive) | > 30 µM (inactive) | > 30 µM (inactive) |  |  | > 30 µM (inactive) | > 30 µM (inactive) | CC(C)(O)CC(=O)NCCn1ccc2ncnc(Nc3ccc(Oc4cccc(C(F)(F)F)c4)c(Cl)c3)c21 [TAK-285]
> 30 µM (inactive) | > 30 µM (inactive) | > 30 µM (inactive) |  | > 30 µM (inactive) | > 30 µM (inactive) | > 30 µM (inactive) |  | > 30 µM (inactive) | > 30 µM (inactive) | > 30 µM (inactive) |  | CNC(=O)c1cccc(-c2ccc3c(N4CCOC[C@@H]4C)nc(N4CCOC[C@@H]4C)nc3n2)c1 [VISTUSERTIB]
 |  | > 30 µM (inactive) |  |  | 2.42 µM (active) | > 30 µM (inactive) | > 30 µM (inactive) |  |  | > 30 µM (inactive) |  | COc1cc2ncnc3c2cc1OCCCCCN(C)Cc1ccc(Br)cc1N3 [JNJ-26483327]
 |  |  | > 30 µM (inactive) |  | 0.034 µM (active) |  |  |  |  |  |  | COc1cccc(Nc2ncnn3ccc(CN4CC[C@@H](N)[C@H](O)C4)c23)c1 [BMS-690514]
> 30 µM (inactive) |  | > 30 µM (inactive) |  |  |  |  |  |  |  |  |  | C[C@@]1(C(=O)Nc2ccc(F)nc2)CCCN1c1nc(Nc2cc(C3CC3)n[nH]2)c2cccn2n1 [BMS-754807]
> 30 µM (inactive) |  | > 30 µM (inactive) |  | > 30 µM (inactive) |  | > 30 µM (inactive) | > 30 µM (inactive) |  |  |  | > 30 µM (inactive) | CCOc1ccn(-c2ccc(F)cc2)c(=O)c1C(=O)Nc1ccc(Oc2ccnc(N)c2Cl)c(F)c1 [BMS-777607]
> 30 µM (inactive) | > 30 µM (inactive) | > 30 µM (inactive) | > 30 µM (inactive) |  |  |  |  |  | > 30 µM (inactive) |  |  | Cn1c(=O)n(-c2ccc(C(C)(C)C#N)cc2)c2c3cc(-c4cnc5ccccc5c4)ccc3ncc21 [DACTOLISIB]
